In patent publication US8481539B2, “Alkynylaryl compounds and salts thereof, pharmaceutical compositions comprising same, methods of preparing same and uses of same” (Bayer Intellectual Property GmbH, priority 2007, dated 2013):

target: T1, human insuline receptor (Ins-R) (Homo sapiens, UniProt P06213); experiment: Insulin Receptor HTRF Assay (assay 4); assay type: biochemical; conditions: pIC50 class; 10 μM ATP; read-out: Enzymatic InsR activity (assay 4)
T1 construct: GST-tagged recombinant kinase domain of the human insuline receptor; GST; purchased ProQinase, Freiburg, Germany; host or cells: SF-9 cells
T1 sequence (P06213 1023-1298 limits assumed): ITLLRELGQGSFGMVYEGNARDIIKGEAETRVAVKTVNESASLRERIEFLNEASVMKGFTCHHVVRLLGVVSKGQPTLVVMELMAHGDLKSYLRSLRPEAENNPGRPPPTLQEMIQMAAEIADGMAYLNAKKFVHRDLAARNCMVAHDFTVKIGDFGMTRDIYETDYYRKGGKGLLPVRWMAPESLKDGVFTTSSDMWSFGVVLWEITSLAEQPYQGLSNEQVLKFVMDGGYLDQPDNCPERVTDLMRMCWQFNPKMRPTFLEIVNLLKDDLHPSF
Procedure: Assay 4: Insulin Receptor HTRF Assay
Inhibitory activity of compounds against the kinase activity of the insulin receptor was quantified employing the Ins-R HTRF assay as described in the following paragraphs.
GST-tagged recombinant kinase domain of the human insuline receptor (Ins-R, purchase from ProQinase, Freiburg, Germany) expressed in SF-9 cells was used as kinase. As substrate for the kinase reaction biotinylated poly-(Glu, Tyr) (Cis biointernational, France) was used.
Ins-R was incubated for 20 min at 22° C. in the presence of different concentrations of test compounds in 5 μl assay buffer [50 mM Hepes/NaOH pH 7, 15 mM MnCl2, 1 mM dithiothreitol, 0.1 μM sodium ortho-vanadate, 0.015% (v/v) PEG20000, 10 μM adenosine-tri-phosphate (ATP), 0.3 μg/ml substrate, 1% (v/v) dimethylsulfoxide]. The concentration of Ins-R was adjusted depending of the activity of the enzyme lot and was chosen appropriate to have the assay in the linear range, typical concentrations were in the range of 10 pg/μl. The reaction was stopped by the addition of 5 μl of a solution of HTRF detection reagents (0.1 μM streptavidine-XLent and 1 nM PT66-Eu-Chelate, an europium-chelate labelled anti-phospho-tyrosine antibody from Perkin Elmer) in an aqueous EDTA-solution (80 mM EDTA, 0.2% (w/v) bovine serum albumin in 50 mM HEPES/NaOH pH 7.0).
The resulting mixture was incubated 1 h at 22° C. to allow the binding of the biotinylated phosphorylated peptide to the streptavidine-XLent and the PT66-Eu-Chelate. Subsequently the amount of phosphorylated substrate was evaluated by measurement of the resonance energy transfer from the PT66-Eu-Chelate to the streptavidine-XLent. Therefore, the fluorescence emissions at 620 nm and 665 nm after excitation at 350 nm was measured in a HTRF reader, e.g. a Rubystar (BMG Labtechnologies, Offenburg, Germany) or a Viewlux (Perkin-Elmer). The ratio of the emissions at 665 nm and at […] was taken as the measure for the amount of phosphorylated substrate. The data were normalised (enzyme reaction without inhibitor=0% inhibition, all other assay components but no enzyme=100% inhibition) and IC50 values were calculated by a 4 parameter fit using an inhouse software.

IC50, ≥ 10 µM:
Cn1ncc2c(C#Cc3cc(NC(=O)c4cccc(C(F)(F)F)c4)ccc3F)cncc21 [Example 1.9, N-[4-Fluoro-3-(1-methyl-1H-pyrazolo[3,4-c]pyridin-4-ylethynyl)-phenyl]-3-trifluoromethyl-benzamide]
Cc1ccc(NC(=O)c2cccc(C(F)(F)F)c2)cc1C#Cc1cncc2c1cnn2C [Example 1.6, N-[4-Methyl-3-(1-methyl-1H-pyrazolo[3,4-c]pyridin-4-ylethynyl)-phenyl]-3-trifluoromethyl-benzamide]
Cn1ncc2c(C#Cc3cccc(NC(=O)c4cccc(C(F)(F)F)c4)c3)cncc21 [Example 1.5, N-[3-(1-Methyl-1H-pyrazolo[3,4-c]pyridin-4-ylethynyl)-phenyl]-3-trifluoromethyl-benzamide]
